Data published in US20230100559A1, “Compositions and Methods for Treatment of Disease by Manipulation of Serine Metabolism” (The Trustees of Princeton University, priority 2020, published 2023).
“Also recorded” adds a separate entry of the source. Values belong to the molecule of their own block, whether it stands above or below them.

What was measured:
SHMT2 = biological target: T1, SHMT2 (Homo sapiens, UniProt P34897); test: SHMT2 inhibition (Table 2); format: biochemical
T1 sequence (P34897 30-504): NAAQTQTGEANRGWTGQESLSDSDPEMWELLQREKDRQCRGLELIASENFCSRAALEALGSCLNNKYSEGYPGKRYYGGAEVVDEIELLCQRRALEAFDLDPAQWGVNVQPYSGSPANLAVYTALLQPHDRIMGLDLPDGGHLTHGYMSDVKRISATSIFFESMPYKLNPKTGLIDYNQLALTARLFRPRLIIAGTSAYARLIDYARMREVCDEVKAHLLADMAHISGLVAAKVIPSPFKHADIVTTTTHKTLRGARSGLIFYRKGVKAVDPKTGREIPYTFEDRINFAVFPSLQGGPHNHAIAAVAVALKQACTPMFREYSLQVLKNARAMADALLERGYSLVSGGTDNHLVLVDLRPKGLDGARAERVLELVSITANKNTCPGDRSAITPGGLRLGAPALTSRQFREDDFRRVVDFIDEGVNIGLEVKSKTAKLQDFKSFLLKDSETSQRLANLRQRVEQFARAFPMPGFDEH

SHMT1 = biological target: T2, SHMT1 (Homo sapiens, UniProt P34896); test: SHMT1 inhibition (Table 2); format: biochemical
T2 sequence (P34896 1-483): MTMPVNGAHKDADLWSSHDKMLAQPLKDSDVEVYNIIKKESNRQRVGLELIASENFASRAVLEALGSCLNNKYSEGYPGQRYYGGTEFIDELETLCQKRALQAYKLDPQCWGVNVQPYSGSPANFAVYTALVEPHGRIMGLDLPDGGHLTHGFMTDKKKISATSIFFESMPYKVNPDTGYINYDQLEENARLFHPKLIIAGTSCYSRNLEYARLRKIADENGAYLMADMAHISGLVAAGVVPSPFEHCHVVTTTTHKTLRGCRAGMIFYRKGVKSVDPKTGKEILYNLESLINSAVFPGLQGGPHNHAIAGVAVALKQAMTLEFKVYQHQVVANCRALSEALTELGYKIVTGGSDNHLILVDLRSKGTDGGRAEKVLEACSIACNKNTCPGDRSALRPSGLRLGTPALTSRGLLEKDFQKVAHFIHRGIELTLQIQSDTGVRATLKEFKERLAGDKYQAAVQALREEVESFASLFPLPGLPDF

HCT116 cells [1] = test: Cell proliferation assay, HCT116; format: cell-based
Description: (§1) Cell Proliferation Assays. Cells were seeded in seeded in 96 well plates (Corning 3603) for overnight attachment. Medium (with or without drugs) was changed next day, and cell numbers were recorded using Thermofisher CyQUANT kit.

C2C12 cells = C2C12 cells treated with metformin, serine catabolism inhibition; format: cell-based; settings: C2C12, 5 mM metformin, SHIN1 250 nM
Description: (§2) Adherent cells. Cells were seeded in 6 well plates overnight and then were treated with ETC inhibitors. Serine-free DMEM with 10% dialyzed FBS was supplemented with 400 µM [2,3,3, 2H]serine. Medium was replaced by the isotope tracing medium with corresponding drugs, and cells were incubated for 3 h. Medium was aspirated, and metabolism was quenched with extraction buffer (40:40:20 acetonitrile:methanol: water with 0.5% formic acid; 40 μl of extraction solvent per 1 μl packed cell volume)(Lu et al., 2018). Plates were placed on dry ice for 10 mins, and thereafter the extraction solution was neutralized with 15% NH4HCO3 (70 μl for 800 μl extraction buffer). Cells were then scraped off from plates by using a cell lifter (Corning 3008), transferred into Eppendorf tubes and centrifuged in a benchtop microfuge at maximum speed for 30 min at 4° C. Supernatant was transferred to LC-MS vials for analysis.
as §1

HCT116 xenograft tumors = test: HCT116 xenograft tumors, metabolomics and [2,3,3-2H]serine tracing; format: in vivo, mice
Description: Mouse Xenograft and allograft. For tumor xenograft tracing experiments, 6- to 7-week-old male CD1/nude mice were injected in the rear flanks with HCT-116 (1×10^6 cells in 100 μL 1:1 PBS:Matrigel). For tumor allograft tracing experiment, 6- to 8-wk-old male C57BL6 mice were injected in the rear flank with KrasLSL.G12D/+x p53R172H/+x PdxCretg/+ pancreatic tumor tissue suspension (200 μL 1:1 DMEM:Matrigel). Jugular vein catheterization surgery was performed when tumor size reached 250 mm3 [volume=1/2 (length×width×height)]. […] Tracing experiments were performed after 1 week of post-surgery monitoring. Tumors were removed and immediately clamped to aluminum foil using Wollenberger clamp and stored in liquid nitrogen. For Long term storage, tissues were kept in −80° C. until future sample preparation.
Metabolites extraction from tissue, tumors and serum. Tissues and tumors were collected from mice and immediately clamped into liquid nitrogen using Wollenberger clamp, tissue were stored in −80° C. Frozen tissues were transferred into 2 ml Eppendorf tubes, which are precooled on dry ice, and pulverized by using cyromill. The resulting tissue powder was weighed (around 10 mg) and mixed well by vortexing in extraction buffer (40 μL extraction buffer per mg tissue). The extraction solution was neutralized with NH4HCO3 as above and centrifuged in a microfuge at maximum speed for 30 min at 4° C. Supernatant was transferred to LC-MS vials for analysis.
IACS-10759 is a potent mitochondrial complex I inhibitor with efficacy in inhibiting tumor growth and inducing apoptosis in models of brain cancer and acute myeloid leukemia. Molina, J. R. et al., Nat. Med. 24, 1036-1046 (2018). […] To check whether circulating serine contributes NADH when respiration is impaired in vivo, [2,3,3-^2H]serine was infused into tumor bearing mice.

MTHFD2 = biological target: T3, MTHFD2 (Homo sapiens, UniProt P13995); test: Enzymatic assay for MTHFD2 with increasing NADH; format: biochemical
T3 construct: purchased Raze Therapeutics (gift, not a catalogue product)
T3 sequence (P13995 36-350): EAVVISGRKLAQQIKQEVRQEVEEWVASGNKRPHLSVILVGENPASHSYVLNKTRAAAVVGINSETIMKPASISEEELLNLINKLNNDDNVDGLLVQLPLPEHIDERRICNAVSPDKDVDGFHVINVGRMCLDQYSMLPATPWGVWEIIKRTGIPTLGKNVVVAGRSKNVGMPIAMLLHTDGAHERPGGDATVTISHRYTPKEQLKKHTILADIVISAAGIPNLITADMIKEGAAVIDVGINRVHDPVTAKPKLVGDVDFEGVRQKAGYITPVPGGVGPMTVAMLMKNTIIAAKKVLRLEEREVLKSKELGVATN
Description: Enzymatic Assay for MTHFD2. NAD (Sigma N0632), NADH (Sigma N8129) and 5, 10-meTHF (Schircks Laboratories, 16.226) solution were freshly prepared each time in water. Reaction mixtures consisted of 50 mM KH2PO4 pH 7.4, 5 mM dithiothreitol (DTT), 5% DMSO, and 0.005 mg/mL MTHFD2 (obtained from Raze Therapeutics), and NAD and NADH as indicated in the Figures. Reaction mixtures were incubated for 5 min at 37° C. before initiation of the reaction by addition of 5,10-meTHF to a final concentration of 0.4 mM using multichannel. The plate was mixed for 5 s in the plate reader (Biotek Synergy HT), and the rate of change in absorbance at 340 nm due to NADH accumulation was recorded over the duration of linear NADH accumulation.
Enzymatic Assay for MDH. NAD and NADH solutions were freshly prepared in water; malate solution was prepared in 50 mM Tris-HCl and adjusted pH to 7.6 with 10 M KOH. […] The plate was mixed for 5 s in the plate reader, and absorbance at 340 nm recorded as above.
Enzymatic assay for PDH and KGDH: Pyruvate dehydrogenase and alpha-ketoglutarate dehydrogenase solutions were freshly prepared to a concentration 0.075 unit/ml with buffer containing 20 mM sodium phosphate and 1 mM MgCl2, pH7.2. […] The plate was mixed for 5 s in the plate reader, and absorbance at 340 nm recorded as above.

HCT116 cells [2] = test: NAD2H labeling from [2,3,3-2H]serine in cultured cells; format: cell-based
Description: as §2
LC-MS. […] Solvent A is 95:5 water: acetonitrile with 20 mM ammonium acetate and 20 mM ammonium hydroxide at pH 9.4, and solvent B is acetonitrile. The gradient was 0 min, 85% B; 2 min, 85% B; 3 min, 60% B; 9 min, 60% B; 9.5 min, 35% B; 13 min, 5% B; 15.5 min, 5% B; 16 min, 85% B; 20 min, stop run. Injection volume was 15 μL. The Q-Exactive Plus mass spectrometer was operated in negative ion mode scanning from m/z 70-1000 with a resolution (at m/z 200) of 140,000 (AGC target 3e6, Maximum IT 200 ms) (Wang et al., 2019). A second scan from m/z 640-765 with a resolution (at m/z 200) of 35,000 (AGC target 5e5, maximum IT 200 ms) was used to measure NAD(P), NAD(P)H, and their labeling. The purpose of the second scan was to enhance sensitivity for NAD(P)(H) by restricting the range of ions in the orbitrap and to maximize the accuracy of isotope ratios by decreasing the scan range and mass resolution (Su et al., 2017).
Calculation of 2H-serine contribution to malate, aspartate, and NADH: For malate and aspartate, the 2H-labeling fraction was measured directly (fractional size of 2H-peak relative to sum of all peaks, after isotope correction as above). For NADH, the 2H-labeling fraction was measured based on the active hydride labeling (x), which was determined from the labeling pattern of NAD+ and NADH by least square fitting in MATLAB of the observed experimental data (after natural isotope correction) to the below vectors (Liu et al., 2016a).

liver NADH/NAD ratio = test: Serine/metformin drinking water, liver metabolomics; format: in vivo, mice; settings: 5% serine or 0.25% metformin drinking water for 2 weeks
[3] = IACS-10759 10 mg/kg gavage every day for 7 days, CD-1 nude mice
[4] = cultured cells, complex I inhibitor added

- IC50 (SHMT2): 1190 nM
- IC50 (SHMT1): 593 nM
Compound: Cc1n[nH]c2c1C(c1cc(Cl)cc(Cl)c1)(C1CCC1)C(C#N)=C(N)O2 (centres unmarked) [HK-10]

- IC50 (SHMT2): 131 nM
- IC50 (SHMT1): 67 nM
Compound: Cc1n[nH]c2c1C(c1cc(Cl)cc(Cl)c1)(C(C)C)C(C#N)=C(N)O2 (centres unmarked) [HK-14]

- IC50 (SHMT2): 35 nM
- IC50 (SHMT1): 20 nM
Compound: Cc1n[nH]c2c1C(c1cc(Cl)cc(C(F)(F)F)c1)(C(C)C)C(C#N)=C(N)O2 (centres unmarked) [HK-15]

- IC50 (SHMT2): 66 nM
- IC50 (SHMT1): 13 nM
Compound: Cc1n[nH]c2c1C(c1cc(N3CCCC3)cc(C(F)(F)F)c1)(C(C)C)C(C#N)=C(N)O2 (centres unmarked) [HK-X1]

Compound: Cc1[nH]nc2c1C(c1cc(CO)cc(-c3ccccc3)c1)(C(C)C)C(C#N)=C(N)O2 (centres unmarked) [HK-X2 (SHIN1)]
- cell proliferation / growth (HCT116 cells [1]; HCT116, in the presence of metformin): enhances growth; also recorded: augmented proliferation
- cell proliferation / growth (HCT116 cells [1]; HCT116, in the presence of phenformin or rotenone): enhances growth; also recorded: augmented proliferation
- cell proliferation (HCT116 cells [1]; HCT116, standard tissue culture conditions): decreased cell proliferation
- cell growth (HCT116 cells [1]; HCT116 WT, hypoxia (0.5% O2), low doses of SHIN1): modestly increased cell growth
- aspartate (C2C12 cells): enhances aspartate
- cell growth / tolerance of metformin (C2C12 cells): restores; also recorded: better tolerated metformin

Compound: Cc1nc(-c2nc(-c3ccc(OC(F)(F)F)cc3)no2)nn1Cc1cccc(N2CCC(S(C)(=O)=O)CC2)c1 [IACS-10759]
- NADH/NAD ratio of tumors (HCT116 xenograft tumors; [3]): increased
- intra-tumor lactate level (HCT116 xenograft tumors; [3]): increased
- 2H-malate labeling from [2,3,3-2H]serine in tumors (HCT116 xenograft tumors; IACS-10759 10 mg/kg, 2.5 hours serine infusion): increased

- NADH level up to which MTHFD2 maintains full activity (MTHFD2; NADH as competitive (product) inhibitor, adequate NAD): up to 200 μM
- sensitivity of MTHFD2 to NADH, less than PDH, KGDH and malate dehydrogenase (MTHFD2; product inhibition by NADH): at least 10 fold
Compound: NC(=O)C1=CN([C@@H]2O[C@H](COP(=O)(O)OP(=O)(O)OC[C@H]3O[C@@H](n4cnc5c(N)ncnc54)[C@H](O)[C@@H]3O)[C@@H](O)[C@H]2O)C=CC1 [NADH]

Compound: N#C/C(=C\c1cn(-c2ccccc2)c2ccccc12)C(=O)O [UK5099]
- block of the pyruvate effect (rescue of NADH phenotypes) (HCT116 cells [2]; metformin-treated cells with pyruvate): does not block; also recorded: not blocked

Compound: CC1=C(C)C(=O)C(C)=C(C)C1=O [duroquinone]
- fractional contribution of serine to NADH (HCT116 cells [2]; added to metformin-treated cells (HCT116, 5 mM metformin)): decreased

Compound: CN(C)C(=N)N=C(N)N [metformin, reference compound]
- NADH/NAD ratio in liver (liver NADH/NAD ratio): increased; also recorded: significantly increase
- fractional contribution of serine to NADH (HCT116 cells [2]; [4]): dramatically elevated

Compound: [H]/N=C(/N)N/C(=N/[H])NCCc1ccccc1 [phenformin]
- fractional contribution of serine to NADH (HCT116 cells [2]; [4]): dramatically elevated

Compound: N[C@@H](CO)C(=O)O [serine]
- NADH/NAD ratio in liver (liver NADH/NAD ratio): significantly increase
- NADH/NAD ratio in liver (liver NADH/NAD ratio; listed as Serine): increased
